Experiments:
Format in all cases: cell-based
P. aeruginosa SR24 = assay: MIC by broth microdilution (CLSI), P. aeruginosa SR24; settings: Pseudomonas aeruginosa; P. aeruginosa SR24, Ceftazidime-sensitive strain; 10000 cfu/well; cation-adjusted Mueller Hinton broth with 20 μM human apo-transferrin; read-out: minimum growth inhibition concentration (MIC)
Description: (§1) Measurement of a minimum growth inhibition concentration (MIC: μg/mL) was performed according to CLSI (Clinical and Laboratory Standards Institute) method, by broth microdilution method, using an inoculation microbe amount of 10000 cfu/well and cation-adjusted Mueller Hinton broth containing human-derived 20 μM apo-transferrin as a test medium.

[1] = system: P. aeruginosa SR27060(metallo); assay: MIC by broth microdilution (CLSI), P. aeruginosa SR27060; settings: Pseudomonas aeruginosa; P. aeruginosa SR27060, IMP-1, MBL producing carbapenem-resistant strain; 10000 cfu/well; cation-adjusted Mueller Hinton broth with 20 μM human apo-transferrin; read-out: minimum growth inhibition concentration (MIC)
Description: as §1

A. baumannii SR24396 = assay: MIC by broth microdilution (CLSI), A. baumannii SR24396; settings: Acinetobacter baumannii, 10000 cfu/well, cation-adjusted Mueller Hinton broth with 20 μM human apo-transferrin, read-out: minimum growth inhibition concentration (MIC)
Description: as §1

[2] = system: S. maltophilia SR21970(L-1); assay: MIC by broth microdilution (CLSI), S. maltophilia SR21970; settings: Stenotrophomonas maltophilia; S. maltophilia SR21970, L-1, MBL producing carbapenem-resistant strain; 10000 cfu/well; cation-adjusted Mueller Hinton broth with 20 μM human apo-transferrin; read-out: minimum growth inhibition concentration (MIC)
Description: as §1

[3] = system: E. coli ATCC BAA-196_TEM-10; assay: MIC by broth microdilution (CLSI), E. coli ATCC BAA-196; settings: Escherichia coli, ATCCBAA196; E. coli ATCC BAA-196, TEM-10, ESBL producing strain; 10000 cfu/well; cation-adjusted Mueller Hinton broth with 20 μM human apo-transferrin; read-out: minimum growth inhibition concentration (MIC)
Description: as §1

[4] = system: K. pneumoniae ATCC 700603_SHV18; assay: MIC by broth microdilution (CLSI), K. pneumoniae ATCC 700603; settings: Klebsiella pneumoniae, ATCC700603; K. pneumoniae ATCC 700603, SHV-18, ESBL producing strain; 10000 cfu/well; cation-adjusted Mueller Hinton broth with 20 μM human apo-transferrin; read-out: minimum growth inhibition concentration (MIC)
Description: as §1

[5] = system: P. aeruginosa SR27001(MDRP, IMP-1+); assay: MIC by broth microdilution (CLSI), P. aeruginosa SR27001; settings: Pseudomonas aeruginosa; P. aeruginosa SR27001, MDRP, IMP-1, MBL producing carbapenem-resistant strain; 10000 cfu/well; cation-adjusted Mueller Hinton broth with 20 μM human apo-transferrin; read-out: minimum growth inhibition concentration (MIC)
Description: as §1

Row | SMILES | MIC (P. aeruginosa SR24) | MIC [1] | MIC (A. baumannii SR24396) | MIC [2] | MIC [3] | MIC [4] | MIC [5]
1 | Nc1nc(/C(=N/OC(CNC(=O)c2ccc(O)c(O)c2Cl)C(=O)[O-])C(=O)N[C@@H]2C(=O)N3C(C(=O)[O-])=C(C[n+]4cccc5c4CCC5)CS[C@H]23)cs1.[Na+] (stereo partly shown) [Compound I-13] | 0.125 µg/mL | 2 µg/mL | 0.063 µg/mL | > 32 µg/mL | 1 µg/mL | 0.5 µg/mL | 2 µg/mL
2 | C[N+]1(CC2=C(C(=O)[O-])N3C(=O)[C@@H](NC(=O)/C(=N\O[C@H](C(=O)[O-])c4ccc(O)c(O)c4)c4csc(N)n4)[C@H]3SC2)CCCC1.[Na+] [Comparative Example compound 1, reference compound] | 8 µg/mL | > 32 µg/mL | 4 µg/mL | > 32 µg/mL | 16 µg/mL | 16 µg/mL | > 32 µg/mL
3 | Nc1nc(/C(=N/OC[C@H](NC(=O)c2ccc(O)c(O)c2Cl)C(=O)[O-])C(=O)N[C@@H]2C(=O)N3C(C(=O)[O-])=C(C[N+]45CCC(CC4)CC5)CS[C@H]23)cs1.[Na+] [Compound I-23] | 0.125 µg/mL | 0.5 µg/mL | 0.25 µg/mL | 8 µg/mL | 1 µg/mL | 8 µg/mL | –
4 | Nc1nc(/C(=N/OC(CNC(=O)c2ccc(O)c(O)c2Cl)C(=O)[O-])C(=O)N[C@@H]2C(=O)N3C(C(=O)[O-])=C(C[N+]45CCC(CC4)CC5)CS[C@H]23)cs1.[Na+] (stereo partly shown) [Compound I-9] | 0.125 µg/mL | 1 µg/mL | 0.063 µg/mL | 1 µg/mL | 0.5 µg/mL | 0.125 µg/mL | 2 µg/mL
5 | Nc1nc(/C(=N/O[C@H](C(=O)[O-])c2ccc(O)c(O)c2)C(=O)N[C@@H]2C(=O)N3C(C(=O)[O-])=C(C[N+]45CCC(CC4)CC5)CS[C@H]23)cs1.[Na+] [Comparative Example compound 2, reference compound] | 8 µg/mL | > 32 µg/mL | 16 µg/mL | > 32 µg/mL | 32 µg/mL | 16 µg/mL | > 32 µg/mL

— patent US9290515B2, “Cephem derivative having catechol group” (SHIONOGI & CO., LTD., priority 2011, dated 2016)
